According to the supplement of paper PMC10307832:

Key:
Test in all cases: relative viability (nuclei count vs DMSO), 5 days (fraction); higher = more cells survive
VE-821 + AZD7762 = compound: CS(=O)(=O)c1ccc(-c2cnc(N)c(C(=O)Nc3ccccc3)n2)cc1 [VE-821] + NC(=O)Nc1cc(-c2cccc(F)c2)sc1C(=O)N[C@H]1CCCNC1 [AZD7762] (partner 0.2 µM)
Outline: (§1)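 Dosing by pin tool came one day after lung cancer cell lines were seeded in 1536-well plates, using either one drug or a fixed anchor-drug dose plus five library-drug doses (not always all listed) in √10 steps. After 5 days, nuclei were counted on 4× images. Relative viability is treated-well nuclei count divided by vehicle-well nuclei count, and values are medians of duplicate plates.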

Ruxolitinib + Trametinib = compound: N#CC[C@H](C1CCCC1)n1cc(-c2ncnc3[nH]ccc23)cn1 [Ruxolitinib] + CC(=O)Nc1cccc(-n2c(=O)n(C3CC3)c(=O)c3c(Nc4ccc(I)cc4F)n(C)c(=O)c(C)c32)c1 [Trametinib] (partner 0.02 µM)
Outline: as §1

VE-821 + Lapatinib = compound: CS(=O)(=O)c1ccc(-c2cnc(N)c(C(=O)Nc3ccccc3)n2)cc1 [VE-821] + CS(=O)(=O)CCNCc1ccc(-c2ccc3ncnc(Nc4ccc(OCc5cccc(F)c5)c(Cl)c4)c3c2)o1 [Lapatinib] (partner 2 µM)
Outline: as §1

Ruxolitinib + Olaparib = compound: N#CC[C@H](C1CCCC1)n1cc(-c2ncnc3[nH]ccc23)cn1 [Ruxolitinib] + O=C(c1cc(Cc2n[nH]c(=O)c3ccccc23)ccc1F)N1CCN(C(=O)C2CC2)CC1 [Olaparib] (partner 8 µM)
Outline: as §1

Cell Line | relative viability (VE-821 + AZD7762; first compound 0.08 µM) | relative viability (VE-821 + AZD7762; first compound 0.253 µM) | relative viability (VE-821 + AZD7762; first compound 0.8 µM) | relative viability (VE-821 + AZD7762; first compound 2.53 µM) | relative viability (VE-821 + AZD7762; first compound 8 µM) | relative viability (Ruxolitinib + Trametinib; first compound 0.08 µM) | relative viability (Ruxolitinib + Trametinib; first compound 0.253 µM) | relative viability (Ruxolitinib + Trametinib; first compound 0.8 µM) | relative viability (Ruxolitinib + Trametinib; first compound 2.53 µM) | relative viability (Ruxolitinib + Trametinib; first compound 8 µM) | relative viability (VE-821 + Lapatinib; first compound 0.08 µM) | relative viability (VE-821 + Lapatinib; first compound 0.253 µM) | relative viability (VE-821 + Lapatinib; first compound 0.8 µM) | relative viability (VE-821 + Lapatinib; first compound 2.53 µM) | relative viability (VE-821 + Lapatinib; first compound 8 µM) | relative viability (Ruxolitinib + Olaparib; first compound 0.08 µM) | relative viability (Ruxolitinib + Olaparib; first compound 0.253 µM) | relative viability (Ruxolitinib + Olaparib; first compound 0.8 µM) | relative viability (Ruxolitinib + Olaparib; first compound 2.53 µM) | relative viability (Ruxolitinib + Olaparib; first compound 8 µM)
LC-2-ad | 0.882 | 0.818 | 0.862 | 0.848 | 0.689 | 0.879 | 0.896 | 0.878 | 0.663 | 0.577 | 1.06 | 1.01 | 1.08 | 1.07 | 0.963 | 0.797 | 0.743 | 0.792 | 0.801 | 0.624
LCLC-97TM1 | 0.162 | 0.137 | 0.204 | 0.116 | 0.133 | 0.176 | 0.157 | 0.199 | 0.113 | 0.217 | 0.75 | 0.716 | 0.669 | 0.848 | 0.393 | 0.367 | 0.292 | 0.331 | 0.417 | 0.295
LK-2 | 0.477 | 0.392 | 0.282 | 0.415 | 0.252 | 0.903 | 0.841 | 1.06 | 0.625 | 0.869 | 1.18 | 0.891 | 0.891 | 0.906 | 0.874 | 0.553 | 0.701 | 0.893 | 0.724 | 0.52
LOU-NH91 | 0.796 | 0.711 | 0.823 | 0.717 | 0.681 | 0.731 | 0.702 | 0.77 | 0.725 | 0.743 | 0.758 | 0.821 | 0.764 | 0.697 | 0.655 | 0.757 | 0.895 | 0.97 | 0.853 | 0.813
LU99A | 0.372 | 0.307 | 0.208 | 0.195 | 0.102 | 0.5 | 0.543 | 0.594 | 0.232 | 0.428 | 1.06 | 1.11 | 1.04 | 0.85 | 0.448 | 0.272 | 0.277 | 0.268 | 0.237 | 0.224
LXF-289 | 0.931 | 1.08 | 1.12 | 0.971 | 0.686 | 0.598 | 0.677 | 0.706 | 0.514 | 0.668 | 1.02 | 0.993 | 0.911 | 1.07 | 0.966 | 0.994 | 1.1 | 1.13 | 1.03 | 0.924
NCI-H23 | 0.18 | 0.148 | 0.153 | 0.14 | 0.126 | 0.371 | 0.354 | 0.436 | 0.241 | 0.35 | 1.19 | 1.07 | 1.27 | 0.989 | 0.394 | 0.371 | 0.369 | 0.311 | 0.242 | 0.17
NCI-H322M | 0.565 | 0.488 | 0.361 | 0.382 | 0.366 | 0.523 | 0.628 | 0.514 | 0.609 | 0.893 | 0.555 |  | 0.654 | 0.627 | 0.508 | 0.752 | 0.852 | 0.79 | 0.809 | 1.05
NCI-H358 | 0.627 | 0.603 | 0.447 | 0.41 | 0.293 | 0.144 | 0.12 | 0.138 | 0.0972 | 0.148 | 0.445 | 0.376 | 0.486 | 0.553 | 0.489 | 0.494 | 0.544 | 0.534 | 0.495 | 0.442
NCI-H460 | 0.568 | 0.411 | 0.217 | 0.117 | 0.0688 | 0.195 | 0.161 | 0.151 | 0.0402 | 0.134 | 1.33 | 0.996 | 0.82 | 0.729 | 0.398 |  | 0.463 | 0.411 | 0.344 | 0.375
NCI-H596 | 1.03 | 0.918 | 0.915 | 0.961 | 0.787 | 0.741 | 0.702 | 0.928 | 0.763 | 0.789 | 1.06 | 0.87 | 1.12 | 1.26 | 1 | 0.761 | 0.71 | 0.844 | 0.696 | 0.751
NCI-H647 | 0.46 | 0.235 |  | 0.217 | 0.0695 | 0.607 | 0.437 | 0.523 | 0.182 | 0.48 | 1.15 | 0.884 | 1 | 1.16 | 0.535 | 0.578 | 0.687 | 0.596 | 0.475 | 0.31
NCI-H650 | 0.873 | 0.954 | 0.992 | 0.836 | 1.04 | 0.972 | 1.05 | 0.935 | 0.681 | 0.962 | 0.887 | 0.929 | 0.903 | 0.957 | 0.982 | 0.379 | 0.436 | 0.392 | 0.384 | 0.314
NCI-H727 | 0.512 | 0.495 | 0.411 | 0.382 | 0.41 | 0.406 | 0.407 | 0.413 | 0.416 | 0.453 | 1.02 | 0.755 | 0.804 | 0.714 | 0.436 | 0.715 | 0.8 | 0.603 | 0.826 | 0.645
NCI-H838 | 0.944 | 0.859 | 0.771 | 0.727 | 0.692 | 0.554 | 0.44 | 0.477 | 0.217 | 0.185 | 1.08 | 0.99 | 0.921 | 1.11 | 0.657 | 0.801 | 0.718 | 0.62 | 0.4 | 0.202
NCI-H1355 | 0.773 | 0.621 | 0.499 | 0.539 | 0.195 | 0.372 | 0.372 | 0.395 | 0.347 | 0.386 | 1.06 | 1.05 | 0.834 | 1.07 | 0.627 | 0.745 | 0.749 | 0.798 | 0.655 | 0.616
NCI-H1395 | 0.379 | 0.391 | 0.369 | 0.366 | 0.362 | 1.04 | 0.95 | 1.15 | 0.981 | 0.965 | 0.902 | 1.15 | 0.903 | 0.987 | 0.768 | 0.44 | 0.419 | 0.456 | 0.443 | 0.476
NCI-H1437 | 1.13 | 1.12 | 0.956 | 1.11 | 0.514 | 0.528 | 0.632 | 0.732 | 0.564 | 0.455 | 0.816 | 0.71 | 0.763 | 0.871 | 0.614 | 0.669 | 0.622 | 0.624 | 0.549 | 0.463
NCI-H1651 | 0.457 | 0.386 | 0.4 | 0.463 | 0.366 | 0.722 | 0.798 | 0.821 | 0.767 | 0.859 | 0.93 | 0.815 | 0.785 | 1.04 | 0.74 | 0.192 | 0.179 | 0.189 | 0.198 | 0.211
NCI-H1666 | 0.753 | 0.705 | 0.798 | 0.705 | 0.713 | 0.834 | 0.87 | 0.871 | 0.76 | 0.881 | 0.839 | 0.57 | 0.713 | 0.623 | 0.462 | 0.74 | 0.759 | 0.797 | 0.786 | 0.698
NCI-H1734 | 0.4 | 0.428 | 0.334 | 0.334 | 0.184 | 0.66 | 0.647 | 0.635 | 0.462 | 0.607 | 1.43 | 1.04 | 1.03 | 1.16 | 0.73 | 0.605 | 0.554 | 0.64 | 0.56 | 0.583
NCI-H1755 | 0.434 | 0.368 | 0.38 | 0.323 | 0.175 | 0.803 | 0.777 | 0.796 | 0.549 | 0.694 | 1.09 | 0.997 | 0.961 | 0.981 | 0.861 | 0.897 | 0.812 | 0.925 | 0.772 | 0.792
NCI-H1792 | 0.665 | 0.432 | 0.328 | 0.196 | 0.135 | 0.38 | 0.498 | 0.407 | 0.347 | 0.359 | 1.04 | 0.964 | 0.913 | 0.966 | 0.816 | 0.303 | 0.44 | 0.377 | 0.384 | 0.236
NCI-H1793 | 0.381 | 0.267 |  | 0.252 | 0.214 | 0.406 | 0.42 | 0.466 | 0.338 | 0.364 | 0.868 | 0.735 | 0.642 | 1.31 | 0.815 | 0.769 | 0.8 | 1.07 | 0.89 | 0.706
NCI-H1915 | 0.7 | 0.618 | 0.594 | 0.537 | 0.321 | 0.315 | 0.311 | 0.325 | 0.153 | 0.253 | 1 | 0.999 | 0.994 | 1.04 | 0.88 | 0.249 | 0.255 | 0.265 | 0.208 | 0.236
NCI-H1944 | 0.527 | 0.402 | 0.296 | 0.277 | 0.121 | 0.391 | 0.386 | 0.422 | 0.304 | 0.369 | 1.09 | 0.811 | 0.748 | 0.935 | 0.386 | 0.431 | 0.426 | 0.428 | 0.399 | 0.448
NCI-H1975 | 0.75 | 0.69 | 0.667 | 0.604 | 0.462 | 0.277 | 0.432 | 0.412 | 0.269 | 0.152 | 0.884 | 0.531 | 0.856 | 0.948 | 0.669 | 0.854 | 0.786 | 0.716 | 0.675 | 0.421
